From patent publication US20230053540A1, “TREATMENT OF LIVER INJURY” (Massachusetts Institute of Technology, priority 2019, published 2023)

System: hepatocytes
Assay: Seq-Well scRNA-Seq of hepatocytes after APAP overdose (signature scores, DEG vs untreated)
Type: in vivo, mouse
Conditions: A6

With `CC(=O)Nc1ccc(O)cc1` [APAP, acetaminophen] the “2-Mar pct.1” value was 0.611, the “2010003K11Rik pct.1” value was 0.396 and the “2810007J24Rik pct.1” value was 0.675. For the same compound, the “8430408G22Rik pct.1” value was 0.041, the “Aadac pct.1” value was 0.673 and the “Aass pct.1” value was 0.747. For the same compound, the “Abca1 pct.1” value was 0.604, the “Abhd2 pct.1” value was 0.37 and the “Acaa1b pct.1” value was 0.752. For the same compound, the “Adck3 pct.1” value was 0.363, the “Adh1 pct.1” value was 0.74 and the “Adh4 pct.1” value was 0.165. For the same compound, the “Agpat9 pct.1” value was 0.277, the “Akr1c6 pct.1” value was 0.675 and the “Akr1c20 pct.1” value was 0.248. For the same compound, the “Alb pct.1” value was 1, the “Aldh1a1 pct.1” value was 0.862 and the “Aldh3a2 pct.1” value was 0.064. The “Aldh8a1 pct.1” value was 0.418, the “Ang pct.1” value was 0.315 and the “Apoa2 pct.1” value was 0.993. The “Apoa4 pct.1” value was 0.721, the “Apob pct.1” value was 0.99 and the “Apoc1 pct.1” value was 0.962. The “Apoc3 pct.1” value was 0.869, the “Apoe pct.1” value was 1 and the “Apol7a pct.1” value was 0.072. The “Arhgef12 pct.1” value was 0.578, the “Arl4d pct.1” value was 0.112 and the “Asl pct.1” value was 0.826. The “Atp2a2 pct.1” value was 0.616, the “Atp5e pct.1” value was 0.506 and the “Atp5h pct.1” value was 0.377. The “B4galt5 pct.1” value was 0.332, the “Bach1 pct.1” value was 0.461 and the “Bcl2l1 pct.1” value was 0.501. The “Btg2 pct.1” value was 0.549, the “C8g pct.1” value was 0.673 and the “C230081A13Rik pct.1” value was 0.279. The “Car3 pct.1” value was 0.854, the “Ccl6 pct.1” value was 0.274 and the “Cd5l pct.1” value was 0.21. The “Cd14 pct.1” value was 0.153, the “Cd302 pct.1” value was 0.649 and the “Cdkn1a pct.1” value was 0.702. For the same compound, the “Cers6 pct.1” value was 0.332, the “Ces3a pct.1” value was 0.831 and the “Chchd2 pct.1” value was 0.718. The “Chka pct.1” value was 0.716, the “Cidec pct.1” value was 0.253 and the “Clec4f pct.1” value was 0.339. For the same compound, the “Clqb pct.1” value was 0.234, the “Cltc pct.1” value was 0.661 and the “Cml1 pct.1” value was 0.475. The “Cox4i1 pct.1” value was 0.869, the “Cox6c pct.1” value was 0.558 and the “Cox7a2 pct.1” value was 0.456. The “Cox7b pct.1” value was 0.632, the “Creb3l2 pct.1” value was 0.329 and the “Ctsl pct.1” value was 0.878. For the same compound, the “Ctss pct.1” value was 0.212, the “Cxadr pct.1” value was 0.606 and the “Cyb5 pct.1” value was 0.916. The “Cyp4a14 pct.1” value was 0.776, the “D10Wsu102e pct.1” value was 0.37 and the “Dbi pct.1” value was 0.819. The “Ddt pct.1” value was 0.539, the “Ddx3x pct.1” value was 0.692 and the “Ddx5 pct.1” value was 0.685. The “Dusp5 pct.1” value was 0.196, the “Dusp6 pct.1” value was 0.482 and the “Efhd2 pct.1” value was 0.468. The “Eif1a pct.1” value was 0.599, the “Eif4g2 pct.1” value was 0.757 and the “Epas1 pct.1” value was 0.604. The “Etf1 pct.1” value was 0.606, the “Ets2 pct.1” value was 0.415 and the “Fabp1 pct.1” value was 0.971. For the same compound, the “Fabp2 pct.1” value was 0.315, the “Fam134b pct.1” value was 0.678 and the “Fdx1 pct.1” value was 0.305. The “Fga pct.1” value was 0.986, the “Fgb pct.1” value was 0.995 and the “Fgg pct.1” value was 0.986. The “Fkbp5 pct.1” value was 0.415, the “Fxyd5 pct.1” value was 0.138 and the “G6pc pct.1” value was 0.313. The “Gamt pct.1” value was 0.277, the “Gclc pct.1” value was 0.962 and the “Gcnt2 pct.1” value was 0.372. The “Gjb2 pct.1” value was 0.678, the “Glyat pct.1” value was 0.468 and the “Gm13775 pct.1” value was 0.284. For the same compound, the “Gm15564 pct.1” value was 0.983, the “Gm24601 pct.1” value was 0.241 and the “Gm26924 pct.1” value was 1. For the same compound, the “Gn13 pct.1” value was 0.501, the “Gpt2 pct.1” value was 0.764 and the “Gpx1 pct.1” value was 0.969. The “Grn pct.1” value was 0.582, the “Gsta1 pct.1” value was 0.32 and the “Gulo pct.1” value was 0.076. For the same compound, the “H3f3b pct.1” value was 0.613, the “Haao pct.1” value was 0.621 and the “Hacl1 pct.1” value was 0.489. For the same compound, the “Hagh pct.1” value was 0.573, the “Hba-a1 pct.1” value was 0.165 and the “Hba-a2 pct.1” value was 0.131. For the same compound, the “Hbb-bs pct.1” value was 0.537, the “Hbb-bt pct.1” value was 0.246 and the “Hebp1 pct.1” value was 0.43. The “Hes6 pct.1” value was 0.076, the “Hgd pct.1” value was 0.511 and the “Hif1a pct.1” value was 0.427. For the same compound, the “Hilpda pct.1” value was 0.403, the “Hint1 pct.1” value was 0.57 and the “Hmox1 pct.1” value was 0.558. For the same compound, the “Hnf4a pct.1” value was 0.835, the “Hpd pct.1” value was 0.883 and the “Hsd3b5 pct.1” value was 0.062. For the same compound, the “Hsd17b13 pct.1” value was 0.864, the “Hspb8 pct.1” value was 0.709 and the “Iigp1 pct.1” value was 0.78. For the same compound, the “Il1b pct.1” value was 0.236, the “Il1r1 pct.1” value was 0.683 and the “Insig2 pct.1” value was 0.854. For the same compound, the “Itih2 pct.1” value was 0.893, the “Jak1 pct.1” value was 0.554 and the “Jmjd1c pct.1” value was 0.47. The “Klf6 pct.1” value was 0.382, the “Krt8 pct.1” value was 0.826 and the “Krt18 pct.1” value was 0.864. The “Lactb2 pct.1” value was 0.47, the “Lars2 pct.1” value was 1 and the “Lifr pct.1” value was 0.389. The “Lpgat1 pct.1” value was 0.618, the “Lpin2 pct.1” value was 0.745 and the “Lrg1 pct.1” value was 0.783. For the same compound, the “Lrrc58 pct.1” value was 0.711, the “Lyz2 pct.1” value was 0.234 and the “Man2a1 pct.1” value was 0.671. For the same compound, the “Mat1a pct.1” value was 0.986, the “Mbl1 pct.1” value was 0.382 and the “Mcm10 pct.1” value was 0.079. For the same compound, the “Mfsd2a pct.1” value was 0.465, the “Mgst1 pct.1” value was 0.938 and the “Mmp8 pct.1” value was 0.136. The “Mrap pct.1” value was 0.606, the “Msrb1 pct.1” value was 0.558 and the “Mt1 pct.1” value was 0.981. For the same compound, the “Mt2 pct.1” value was 0.938, the “Mthfd2 pct.1” value was 0.205 and the “Mup3 pct.1” value was 1. For the same compound, the “Mup4 pct.1” value was 0.621, the “Mup5 pct.1” value was 0.475 and the “Mup6 pct.1” value was 0.706. For the same compound, the “Mup7 pct.1” value was 0.831, the “Mup9 pct.1” value was 0.489 and the “Mup11 pct.1” value was 0.511. The “Mup12 pct.1” value was 0.32, the “Mup15 pct.1” value was 0.076 and the “Mup16 pct.1” value was 0.334. For the same compound, the “Mup17 pct.1” value was 0.871, the “Mup18 pct.1” value was 0.728 and the “Mup19 pct.1” value was 0.759. The “Mup21 pct.1” value was 0.58, the “Myh9 pct.1” value was 0.718 and the “Myo1e pct.1” value was 0.475. For the same compound, the “Ndufa4 pct.1” value was 0.656, the “Ndufa6 pct.1” value was 0.506 and the “Nid1 pct.1” value was 0.229. For the same compound, the “Nop58 pct.1” value was 0.492, the “Nudt7 pct.1” value was 0.279 and the “Oaf pct.1” value was 0.437. For the same compound, the “Oat pct.1” value was 0.05, the “Pah pct.1” value was 0.687 and the “Pcbd1 pct.1” value was 0.535. The “Pck1 pct.1” value was 0.814, the “Phlda1 pct.1” value was 0.494 and the “Picalm pct.1” value was 0.647. For the same compound, the “Plin2 pct.1” value was 0.943, the “Plscr1 pct.1” value was 0.329 and the “Pon1 pct.1” value was 0.685. The “Ppib pct.1” value was 0.463, the “Ppl pct.1” value was 0.47 and the “Ppm1k pct.1” value was 0.15. The “Prdx1 pct.1” value was 0.742, the “Psat1 pct.1” value was 0.229 and the “Psen2 pct.1” value was 0.384. For the same compound, the “Ptprc pct.1” value was 0.153, the “Ranbp2 pct.1” value was 0.566 and the “Rarres2 pct.1” value was 0.678. The “Rcan1 pct.1” value was 0.425, the “Rdh7 pct.1” value was 0.862 and the “Rell1 pct.1” value was 0.375. For the same compound, the “Retnlg pct.1” value was 0.129, the “Retsat pct.1” value was 0.845 and the “Rnase4 pct.1” value was 0.563. The “Rock2 pct.1” value was 0.425, the “Rora pct.1” value was 0.549 and the “Rps27l pct.1” value was 0.484. For the same compound, the “S100a8 pct.1” value was 0.353.
